The values that follow come from article PMC9572860, “Antiprotozoal Activity of Azabicyclo-Nonanes Linked to Tetrazole or Sulfonamide Cores” (Molecules, 2022).

Data set [1] deals with T. b. rhodesiense STIB 900. Description: In vitro microplate resazurin assay against T. brucei rhodesiense. The format is cell-based, Trypanosoma brucei rhodesiense. Conditions: for S.I. = IC50 (Cyt.)/IC50 (T.b.r.): L-6 cytotoxicity over T.b.r.; for IC50: Trypanosoma brucei, read-out: T. Brucei Rhodesiense IC50. How it is done:
(§1) Compounds were tested for their activities against strains of P. falciparum and T. b. rhodesiense via microplate assays. Their cytotoxicity was determined with rat skeletal myoblasts (L-6 cells). Chloroquine and melarsoprol served as standards (Table 1).
Minimum essential medium (50 µL) supplemented with 25 mM HEPES, 1 g/L additional glucose, 1% MEM nonessential amino acids (100×), 0.2 mM 2-mercaptoethanol, 1 mM Na-pyruvate and 15% heat inactivated horse serum was added to each well of a 96-well microtiter plate. Serial drug dilutions of 11 three-fold dilution steps covering a range from 100 to 0.002 μg/mL were prepared. Then, 4 × 10^3 bloodstream forms of T. b. rhodesiense STIB 900 in 50 µL was added to each well and the plate incubated at 37 °C under a 5% CO2 atmosphere for 70 h. Ten microliters of resazurin solution (resazurin, 12.5 mg in 100 mL double-distilled water) was then added to each well and incubation continued for an additional 2–4 h. The plates were then read with a Spectramax Gemini XS microplate fluorometer (Molecular Devices Cooperation, Sunnyvale, CA, USA) using an excitation wavelength of 536 nm and an emission wavelength of 588 nm. Data were analyzed with the graphic program Softmax Pro (Molecular Devices Cooperation, Sunnyvale, CA, USA), which calculated IC50 values by linear regression and 4-parameter logistic regression from the sigmoidal dose inhibition curves. Melarsoprol (Arsobal Sanofi-Aventis, received from WHO) was used as control.

For another data set, the system named is P. falciparum NF54. Description: In vitro microplate 3H-hypoxanthine incorporation assay against P. falciparum NF54. Particulars: for S.I. = IC50 (Cyt.)/IC50 (P.f. NF54): L-6 cytotoxicity over P.f. NF54; for IC50: Plasmodium falciparum, NF54 strain sensitive to chloroquine and pyrimethamine, erythrocytic stages, average of four determinations, read-out: P. Falciparum NF54 IC50. The format is cell-based, Plasmodium falciparum. The protocol:
as §1
In vitro activity against erythrocytic stages of P. falciparum was determined using a ^3H-hypoxanthine incorporation assay, using the drug-sensitive NF54 strain [21] or the chloroquine- and pyrimethamine-resistant K1 strain [22]. Compounds were dissolved in DMSO at 10 mg/mL and added to parasite cultures incubated in RPMI 1640 medium without hypoxanthine, supplemented with HEPES (5.94 g/L), NaHCO3 (2.1 g/L), neomycin (100 U/mL), Albumax (5 g/L) and washed human red cells A+ at 2.5% hematocrit (0.3% parasitemia). Serial drug dilutions of 11 three-fold dilution steps covering a range from 100 to 0.002 µg/mL were prepared. The 96-well plates were incubated in a humidified atmosphere at 37 °C; 4% CO2, 3% O2, 93% N2. After 48 h, 0.05 mL of ^3H-hypoxanthine (=0.5 µCi) was added to each well of the plate. The plates were incubated for an additional 24 h under the same conditions. The plates were then harvested with a Betaplate cell harvester (Wallac, Zurich, Switzerland). The red blood cells were transferred onto a glass fiber filter and washed with distilled water. The dried filters were inserted into a plastic foil with 10 mL of scintillation fluid and counted in a Betaplate liquid scintillation counter (Wallac, Zurich, Switzerland). IC50 values were calculated from sigmoidal inhibition curves by linear regression using Microsoft Excel. Chloroquine (Sigma C6628) was used as control.

Data set [2] can be described thus: In vitro cytotoxicity with L-6 cells. The data set is classed as cell-based, rat. The protocol:
as §1
Assays were performed in 96-well microtiter plates, each well containing 0.1 mL of RPMI 1640 medium supplemented with 1% L-glutamine (200 mM) and 10% fetal bovine serum and 4000 L-6 cells (a primary cell line derived from rat skeletal myoblasts, ATCC CRL-1458™). Serial drug dilutions of 11 three-fold dilution steps covering a range from 100 to 0.002 μg/mL were prepared. After 70 h of incubation, the plates were inspected under an inverted microscope to assure the growth of the controls and sterile conditions. Then, 0.01 mL resazurin solution (resazurin, 12.5 mg in 100 ml double-distilled water) was added to each well and the plates incubated for another 2 h. The plates were read with a Spectramax Gemini XS microplate fluorometer (Molecular Devices Cooperation, Sunnyvale, CA, USA) using an excitation wavelength of 536 nm and an emission wavelength of 588 nm. The IC50 values were calculated by linear regression from the sigmoidal dose inhibition curves using SoftmaxPro software (Molecular Devices Cooperation, Sunnyvale, CA, USA). Podophyllotoxin (Sigma P4405) was used as control.

[3] abbreviates: STIB 900 bloodstream forms, average of four determinations.

Where two headings read alike, the source gives them in different places.

As for `CC(C)(C)C(NCCN1CC2[C@@H](c3ccccc3)CC(N3CCCCC3)(C[C@@H]2c2ccccc2)C1)c1nnnn1C(C)(C)C` (mixture of isomers) [Compound 11B, rac-(1R)-1-(1-tert-Butyl-1H-tetrazol-5-yl)-2,2-dimethyl-N-{2-[(6S,9S)-6,9-diphenyl-1-(piperidin-1-yl)-3-azabicyclo[3.2.2]nonan-3-yl]ethyl}propan-1-amine], the “S.I. = IC50 (Cyt.)/IC50 (T.b.r.)” value in data set [1] was 1.34. Moreover, the IC50 in data set [1] (setting [3]) worked out at 4920 nM. In addition, in the data set with P. falciparum NF54, the “S.I. = IC50 (Cyt.)/IC50 (P.f. NF54)” value was found to be 4.99 and the IC50 came out at 1320 nM. The same compound yielded an IC50 at 72 h in data set [2] (rat) of 6590 nM.

In the case of `CC(C)(C)n1nnnc1[C@H](NCCN1CC2C(c3ccccc3)CC(N3CCCCC3)(CC2c2ccccc2)C1)c1ccccc1` (mixture of isomers) [Compound 12A, rac-N-[(1R)-(1-tert-Butyl-1H-tetrazol-5-yl])(phenyl)methyl]-2-[(6R,9R)-6,9-diphenyl-1-(piperidin-1-yl)-3-azabicyclo[3.2.2]nonan-3-yl]ethan-1-amine], the “S.I. = IC50 (Cyt.)/IC50 (T.b.r.)” value in data set [1] amounted to 1.29. For the same compound, the IC50 in data set [1] (setting [3]) turned out to be 2200 nM; in the data set on P. falciparum NF54, 252 nM. Besides, the “S.I. = IC50 (Cyt.)/IC50 (P.f. NF54)” value in the data set on P. falciparum NF54 amounted to 11.2. The same compound yielded an IC50 at 72 h in data set [2] (rat) of 2830 nM.

As for `Cc1ccc(C(NCCN2CC3C(c4ccccc4)CC(N4CCCCC4)(CC3c3ccccc3)C2)c2nnnn2C(C)(C)C)cc1` (stereo in doubt) [Compound 13B, rac-N-[(1R)-(1-tert-butyl-1H-tetrazol-5-yl)(p-tolyl)methyl]-2-[(6S,9S)-6,9-diphenyl-1-(piperidin-1-yl)-3-azabicyclo[3.2.2]nonan-3-yl]ethan-1-amine], the “S.I. = IC50 (Cyt.)/IC50 (T.b.r.)” value in data set [1] was 2.06. Besides, the half-inhibitory concentration (IC50) in data set [1] (setting [3]) turned out to be 1000 nM. Further, in the data set with P. falciparum NF54, the “S.I. = IC50 (Cyt.)/IC50 (P.f. NF54)” value was 3.03 and the concentration for half-maximal inhibition (IC50) came to 680 nM. In data set [2] (rat), this compound came in with an IC50 at 72 h of 2060 nM.

Take `CC(C)(C)n1nnnc1CN(CCN1CC2[C@H](c3ccccc3)CC(N3CCCCC3)(C[C@H]2c2ccccc2)C1)Cc1nnnn1C(C)(C)C` (racemic) [Compound 15, rac-(6R,9R)-N,N-bis[(1-tert-Butyl-1H-tetrazol-5-yl)methyl]-2-[6,9-diphenyl-1-(piperidin-1-yl)-3-azabicyclo[3.2.2]nonan-3-yl]ethan-1-amine]: the “S.I. = IC50 (Cyt.)/IC50 (T.b.r.)” value in data set [1] amounted to 3.21. Also, in data set [1] (setting [3]), the IC50 came out at 1300 nM. Further, in the data set on P. falciparum NF54, the “S.I. = IC50 (Cyt.)/IC50 (P.f. NF54)” value turned out to be 5.62 and the IC50 was found to be 742 nM. Besides, the IC50 at 72 h in data set [2] (rat) amounted to 4170 nM.

`CC(C)(C)n1nnnc1C(NCCN1CC2C(c3ccccc3)CC(N3CCCCC3)(CC2c2ccccc2)C1)c1ccccc1` (racemic) [Compound 12B, rac-N-[(1R)-1-tert-Butyl-1H-tetrazol-5-yl])(phenyl)methyl]-2-[(6S,9S)-6,9-diphenyl-1-(piperidin-1-yl)-3-azabicyclo[3.2.2]nonan-3-yl]ethan-1-amine]: the “S.I. = IC50 (Cyt.)/IC50 (T.b.r.)” value in data set [1] was 1.68. The IC50 in data set [1] (setting [3]) was determined as 1520 nM; in the data set on P. falciparum NF54, 1330 nM. The “S.I. = IC50 (Cyt.)/IC50 (P.f. NF54)” value in the data set with P. falciparum NF54 was 1.92. In data set [2] (rat), this compound gave an IC50 at 72 h of 2560 nM.

For `Nc1nc(N)nc(Nc2ccc([As]3SCC(CO)S3)cc2)n1` (stereo not drawn) [MEL, melarsoprol, reference compound], in data set [1], the “S.I. = IC50 (Cyt.)/IC50 (T.b.r.)” value came out at 864 and the IC50 amounted to 9 nM. In data set [2] (rat skeletal myoblasts, average of four determinations, read-out: Cytotox. L-6 Cells IC50), the IC50 at 72 h came to 7780 nM.

`Cc1ccc([C@@H](NCCN2CC3C(c4ccccc4)CC(N4CCCCC4)(CC3c3ccccc3)C2)c2nnnn2C(C)(C)C)cc1` (mixture of isomers) [Compound 13A, rac-N-[(1R)-(1-tert-Butyl-1H-tetrazol-5-yl)(p-tolyl)methyl]-2-[(6R,9R)-6,9-diphenyl-1-(piperidin-1-yl)-3-azabicyclo[3.2.2]nonan-3-yl]ethan-1-amine]: in data set [1], the “S.I. = IC50 (Cyt.)/IC50 (T.b.r.)” value was found to be 7.75. In data set [1] (setting [3]), the IC50 stood at 329 nM. In addition, in the data set on P. falciparum NF54, the “S.I. = IC50 (Cyt.)/IC50 (P.f. NF54)” value was determined as 5.72 and the IC50 worked out at 446 nM. This compound yielded an IC50 at 72 h in data set [2] (rat) of 2550 nM.
